The subject of experiment [1] is A2780 ovarian cancer cell line. Description: Growth inhibition of human ovarian cancer cells, 24 h exposure, Coulter cell count. The format is cell-based. The procedure:
(§1) The human ovarian cells were added at a density of 1×10^4 cells per well to 24-well tissue culture trays (Falcon Plastic, Becton Dickenson, Lincon Park, N.J., USA) and allowed to grow for 72 h before addition of the Ru(II) arene complexes. Stock solutions of the ruthenium compounds were made up fresh in deionised water and sonicated to ensure complete dissolution. These stock solutions were diluted with media to give final concentrations ranging between 0.1 and 100 μM. All compounds were evaluated at each concentration in duplicate wells, and complete assays were repeated a minimum of three times. Cisplatin or carboplatin was employed as a positive and comparative control in each experiment. After 24-hours exposure the drug-containing medium was removed, the cells washed with phosphate buffered saline (PBS) and fresh medium was added. Cell number was assessed after a further 72 h growth using a Coulter counter (Coulter Electronics Ltd, Luton, UK) and the IC50 values (concentration of drug causing 50% growth inhibition) calculated by linear regression analysis comparing the inhibitory effects of the drugs against the growth of untreated cells.
(§2) The cell lines and methods used are also described in Aird et al, Br. J. Cancer, (2002), 86, 1652–1657.
(§3) Using the above protocol, a number of compounds of the invention were tested on A2780 ovarian cancer cell line, on an A2780 ovarian cancer cell line resistant to cis-platin (A2780^CIS), and on an A2780 ovarian cancer cell line resistant to adriamycin (A2780^AD). Some of the compounds were tested on an A549 cell line.

The subject of experiment [2] is A2780 ovarian cancer cell line resistant to cis-platin (A2780^CIS). Kind of experiment: Growth inhibition, cis-platin resistant ovarian line. In kind it is cell-based, human. Particulars: cis-platin resistant A2780 relative to A2780. The procedure: as §1, §2, §3
For experiment [3], the system named is A2780 ovarian cancer cell line resistant to adriamycin (A2780^AD). Kind of experiment: Growth inhibition, adriamycin resistant ovarian line. In kind it is cell-based, human. The settings on record: adriamycin resistant A2780 relative to A2780. The procedure:
as §1, §2, §3

In experiment [4] the test system is A549 cell line. Kind of experiment: Growth inhibition, A549 cell line. In kind it is cell-based. Particulars: A549 cells; Table 1. The protocol:
as §1, §3

The mark [5] stands for this setting: 24 h exposure, cell number after further 72 h growth, Table 1.
Setting [6] is: comparison with 1,2-diaminoethane analogues.

We go through 9 compounds from patent US7241913B2, “Ruthenium compounds” (The University Court of the University of Edinburgh, priority 2003, dated 2007).

Usually IC50 stands for the concentration needed to halve the response being measured. Low values mean greater potency, high ones weaker potency.

In experiment [1] (setting [5]), `F[P-](F)(F)(F)(F)F.F[P-](F)(F)(F)(F)F.Nc1ccc(-c2ccc(N)c(N)c2)cc1N.[Cl][Ru+].[Cl][Ru+].c1ccc(-c2ccccc2)cc1.c1ccc(-c2ccccc2)cc1` [EX 2, {[(η^6-Biphenyl)Ru(diaminobenzidine)Cl]PF6}2] displayed an IC50 of 52 µM. That is a double-digit micromolar value.
Regarding `F[P-](F)(F)(F)(F)F.Nc1ccccc1N.[Cl][Ru+].c1ccc2c(c1)Cc1ccccc1C2` [EX 3, [(η^6-dihydroanthracene)Ru(o-phenylenediamine)Cl]PF6], the “A2780^CIS Fold resistance” value in experiment [2] (Table 1) and in experiment [2] (setting [6]) was 5 fold each time. For the same compound, the IC50 in experiment [1] (setting [5]) and in experiment [1] (setting [6]) was 7 µM each time. Also, the “A2780^AD fold resistance” value in experiment [3] (Table 1) and in experiment [3] (setting [6]) was 2 fold in each case.
In experiment [1] (setting [5]), `F[P-](F)(F)(F)(F)F.Nc1cccc(O)c1N.[Cl][Ru+].c1ccc(-c2ccccc2)cc1` [EX 4, [(η^6-Biphenyl)Ru(2,3-diaminophenol)Cl]PF6] came in with an IC50 of 32 µM.
As for `Cc1ccc(C(C)C)cc1.F[P-](F)(F)(F)(F)F.Nc1ccccc1N.[Cl][Ru+]` [EX 6, [(η^6-p-cymene)Ru(o-phenylenediamine)Cl]PF6], the “A2780^CIS Fold resistance” value in experiment [2] (Table 1) and in experiment [2] (setting [6]) was 1 fold each time. Besides, the IC50 in experiment [1] (setting [5]) and in experiment [1] (setting [6]) was 11 µM in each case. The “A2780^AD fold resistance” value in experiment [3] (Table 1) and in experiment [3] (setting [6]) was 0.6 fold throughout.
Regarding `Nc1ccc2c(c1N)C(=O)c1ccccc1C2=O.[Cl-].[Cl][Ru+].c1ccc2c(c1)CCC2` [Example 8, [(η^6-indan)Ru(1,2-diaminoanthraquinone)Cl]Cl], the IC50 was found to be 15 µM in experiment [1] (setting [5]) and 48 µM in experiment [4].
Turning to `F[P-](F)(F)(F)(F)F.[Cl][Ru-]1[NH2+]c2ccccc2[NH2+]1.c1ccc(-c2ccccc2)cc1` [EX 1, [(η^6-Biphenyl)Ru(o-phenylenediamine)Cl]PF6], the “A2780^CIS Fold resistance” value in experiment [2] (Table 1) and in experiment [2] (setting [6]) was 1 fold each time. The IC50 in experiment [1] (setting [5]) and in experiment [1] (setting [6]) was 5 µM in each case. Besides, the “A2780^AD fold resistance” value in experiment [3] (Table 1) and in experiment [3] (setting [6]) was 0.8 fold throughout.
Take `Nc1ccc2c(c1N)C(=O)c1ccccc1C2=O.[Cl-].[Cl][Ru+].c1ccc2c(c1)CCCC2` [Example 9, [(η^6-1,2,3,4-tetrahydronaphthalene)Ru(1,2-diaminoanthraquinone)Cl]Cl]: the IC50 was found to be 37 µM in experiment [1] (setting [5]) and 61 µM in experiment [4].
`Cc1ccc(N)c(N)c1.F[P-](F)(F)(F)(F)F.[Cl][Ru+].c1ccc2c(c1)CCC2` [EX 5, [(η^6-indan)Ru(3,4-diaminotoluene)Cl]PF6] returned an IC50 in experiment [1] (setting [5]) of 4 µM.
As for `F[P-](F)(F)(F)(F)F.Nc1ccc([N+](=O)[O-])cc1N.[Cl][Ru+].c1ccc2c(c1)CCCC2` [Example 7, [(η^6-1,2,3,4-tetrahydronaphthalene)Ru(1,2-diamino-4-nitrobenzene)Cl]PF6], the IC50 turned out to be 59 µM in experiment [1] (setting [5]) and 148 µM in experiment [4].
